# According to patent publication US12622890B2, “Use of the active compound in the prevention or treatment of ovarian dysfunction diseases” (INSTITUTE OF BIOPHYSICS, CHINESE ACADEMY OF SCIENCES, priority 2022, dated 2026):
# Counter-ions that a name gives are not always drawn.
# How the values were obtained:
# ovarian tissues = assay: RNA transcription level sequencing of ovarian tissues, differentially expressed genes; format: in vivo, mice; details: ovarian tissue RNA sequencing, FC>2, Q<0.05
# Procedure: Mice were sacrificed after various treatments, and ovarian tissues were taken, snap-frozen in liquid nitrogen, stored at −80° C., and sent to Annoroad for RNA transcription level sequencing. Bioinformatics analysis and mapping were performed on the sequencing results. […] The differential genes of the three treatment groups were intersectioned. […] These differential gene sets were then subjected to Gene Ontology function (GO) enrichment (FC>2, Q<0.05) (FIG. 16) and signaling pathway (KEGG) analysis mapping (FIG. 17), respectively.
# POI mice [1] = assay: Serum malondialdehyde (MDA) level, oxidative stress; format: in vivo
# Source text: (§1) Biomarkers mentioned herein, such as follicle stimulating hormone (FSH), estrogen (e.g., E2), and superoxide dismutase (SOD), malondialdehyde (MDA), relative reactive oxygen species (ROS), and lactate dehydrogenase (LDH), etc., can be detected using methods commonly known in the field. Detection methods typically cover methods that quantify the level of a biomarker in a sample (quantitative methods). Which of the following methods are suitable for qualitative and/or quantitative detection of biomarkers is generally known to those skilled in the field. Samples can be conveniently measured, for example for proteins using immunoassays such as ELISA, RIA, etc., which are commercially available.
# (§2) After 12 days of administration, half of the mice in each group were sacrificed, and their blood was collected and kept still. The serum was separated after centrifugation at 4500 rpm and stored in a refrigerator at −80° C. for future use to measure levels of follicle stimulating hormone, estrogen, and the indexes of oxidative stress such as superoxide dismutase (SOD) and malondial dehyde (MDA).
# (§3) After 12 days of administration, half of the mice in each group were sacrificed, and their blood was collected and kept in still. The serum was separated after centrifugation at 4500 rpm and stored in a refrigerator at −80° C. for future use to measure levals of follicle stimulating hormone, estrogen, and the indexes of oxidative stress such as superoxide dismutase (SOD) and malondialdehyde (MDA).
# (§4) The oxidative stress hypothesis believes that the reduction of antioxidant components in the body leads to the weakening of the ability to remove free radicals, which leads to oxidative damage of biological macromolecules, and the imbalance of cellular oxidative and antioxidant functions, which leads to oxidative stress, and then leads to disease and aging. Oxygen free radicals act on unsaturated fatty acids of lipids to generate lipid peroxides, including malondialdehyde (MDA) and so on. The antioxidant defense system of scavenging free radicals includes superoxide dismutase (SOD) and so on. Recently, oxidative stress has been reported to be associated with ovarian aging and POI in primates. Therefore, this embodiment examined the effects of DMF, HDCA, and DMF+HDCA on oxidative stress in mice with premature ovarian failure, and the results are shown in Table 5, FIGS. 9 to 12.
# POI mice [2] = assay: Serum relative reactive oxygen species (ROS) level; format: in vivo
# Source text: as §1, §4
# POI mice [3] = assay: Serum superoxide dismutase (SOD) level, oxidative stress; format: in vivo
# Source text: as §1, §2, §3, §4
# POI mice [4] = assay: Serum FSH level in POI mice; format: in vivo; details: for FSH: serum, after 12 days 100 mg/kg/d oral
# Source text: as §1, §2, §3
# • 1. Hormone levels in mice blood of Example 1 are measured in this embodiment.
# POI model mice [5] = assay: Estrous cycle observation by vaginal smear cytology in POI model mice; format: in vivo
# [6] = Body weight of POI model mice before modeling, after modeling and after treatment; format: in vivo; details: for Body weight before modeling: D 0, 100 mg/kg/d oral; for Body weight after modeling: D 7, 100 mg/kg/d oral; for Body weight after treatment: D 13, 100 mg/kg/d oral
# Procedure: Animal model establishment: A total of 34 C57 female mice (8-week-old) were selected and intraperitoneally injected with the ratio of 120 mg/kg cyclophosphamide (SIGMA) and 30 mg/kg Busulfan (Aladdin) once a day for 1 week at the dose of 0.1 mL/10 g to establish the model of POI.
# Grouping: 34 POI model mice were randomly divided into four groups: sodium fumarate (SF) treatment group (n=9), hyodeoxycholic acid (HDCA) treatment group (n=8), sodium fumarate plus hyodeoxycholic acid (mass ratio 1:1) combination (SF+HDCA) treatment group (n=8) and normal saline (Vehicle) group (n=9). Mice in the SF group were given oral administration of SF at the ratio of 100 mg/kg/d body weight, mice in the HDCA group were given oral administration of HDCA at the ratio of 100 mg/kg/d body weight, and mice in the combination group were given oral administration of SF and HDCA at the ratio of 100 mg/kg/d body weight. SF and HDCA were dissolved with 0.9% normal saline when used. Mice in the vehicle group were given the same amount of normal saline orally. All the mice were treated consecutively for 12 days.
# Body weight were recorded at three time points, before modeling (at the beginning of treatment), after modeling and after treatment.
# Animal model establishment: A total of 24 C57 mice (8-week-old) were selected and intraperitoneally injected with the ratio of 120 mg/kg cyclophosphamide and 30 mg/kg Busulfan once a day for 1 week at the dose of 0.1 mL/10 g to establish the model of POI.
# Grouping: 24 POI model mice were randomly divided into four groups: dimethyl fumarate (DMF) treatment group (n=5), hyodeoxycholic acid (HDCA) treatment group (n=6), dimethyl fumarate plus hyodeoxycholic acid (mass ratio=1:1) combination (DMF+HDCA) treatment group (n=7) and normal saline (Vehicle) group (n=6). Mice in the DMF treatment group were orally administrated at the ratio of 100 mg/kg/d body weight. Mice in the HDCA treatment group were given oral administration of HDCA at the ratio of 100 mg/kg/d body weight, and mice in the combination group were given oral administration of DMF and HDCA at the ratio of 100 mg/kg/d body weight. Once daily, DMF and HDCA were dissolved in 0.9% normal saline when used. Mice in normal saline group were given the same amount of normal saline orally every day. The drug was administered for 12 days.
# Body weight were recorded at three time points, before modeling (at the beginning of treatment, the 0th day), after modeling (the 7th day) and after treatment (the 13th day).
# The body weight of POI model mice of each group was measured before modeling, after modeling and after treatment.
# POI mice [7] = assay: Serum estradiol (E2) level in POI mice; format: in vivo; details: for E2: serum, after 12 days 100 mg/kg/d oral
# Source text: as §1, §2, §3
# [8] = test system: aged mice with ovarian dysfunction; assay: Ovulation after controlled ovarian hyperstimulation in aged mice; format: in vivo; details: fourteen months old mice
# Procedure: In this Embodiment, the effect of sodium fumarate and hyodeoxy cholic acid on ovulation in aged mice with ovarian dysfunction (ovarian function decline due to natural aging) was examined. Fourteen months old mice were divided into three groups: control group (n=6), sodium fumarate group (SF, n=4), sodium fumarate and hyodeoxy cholic acid group (SF+HDCA, n=3).
# Methods: After controlled ovarian hyperstimulation (48 hours after pregnant horse serum injection, followed by chorionic gonadotropin injection), the ampulla of fallopian tubes of mice was collected 14-16 hours later, and the number of oocytes obtained was recorded. […] All 4 mice in the SF group ovulated.
# POI model mice [9] = assay: Estrous cycle observation by vaginal smear cytology in POI model mice; format: in vivo; remark: listed apart in the source
# Procedure: Cytological observation of vaginal smear was performed daily.
# The vagina of mice was exposed, and about 30 μl of normal saline was dripped into the vagina, gently aspirated onto the slide, and observed under the microscope. Staining was performed when necessary, fixed with 95% ethanol for 10 minutes, stained with hematoxylin in aqueous solution for 5-8 minutes, washed with running water for color separation, and then stained with eosin for 3 minutes. After drying. the slices were sealed with neutral gum.
# The vagina of mice was exposed, and about 30 μl of normal saline was dripped into the vagina, gently aspirated onto the slide, and observed under the microscope. Staining was performed when necessary, stained with hematoxylin in aqueous solution for several minutes after drying, washed with running water for color separation, and then stained with alchhol eosin for several seconds. The slices were sealed with neutral gum.
# During the estrous cycle, a series of histological and physiological changes occur in the reproductive and endocrine systems of mice. According to these changes, the estrous cycle can be divided into proestrous (P), estrous (E), metestrum (M) and diestrum (D). • 1. Observation of estrous cycle in mice of Example 1
# After modeling and treatment, there were 6 mice left in the normal saline group, 6 mice left in the sodium fumarate treatment group, 7 mice left in the hyodeoxycholic acid group, and 7 mice left in the sodium fumarate and hyodeoxycholic acid combination group. […] The estrous cycle was divided into four periods (P: proestrous; E: estrous period; M: metestrum; D: diestrum) for vaginal smear cytological observation, the results are shown in FIG. 3.
# The estrous cycle of mice was plotted according to the cytological results of vaginal smears observed for 12 consecutive days, and the results are shown in FIG. 4. The estrous cycle of mice is about 4 to 5 days, which is divided into four periods alternately. […] The estrous cycle of 4 mice was recovered in sodium fumarate treatment group. The estrous cycle of 3 mice was recovered in HDCA group. The estrous cycle of 6 mice was recovered in group treated with SF and HDCA.
# POI mice [10] = assay: Serum lactate dehydrogenase (LDH) level; format: in vivo
# Source text: as §1
# [11] = serum, POI mice after treatment
# [12] = Example 2, FIG. 8, not statistically significant
# [13] = Example 2, during drug administration, FIG. 5B
# [14] = Example 1, during drug administration, FIG. 4B
structure (smiles),measurement,setting,value
"COC(=O)/C=C/C(=O)OC [DMF, dimethyl fumarate]",Number of genes down-regulated compared with the control group,ovarian tissues,5261 genes
same,Number of genes up-regulated compared with the control group,ovarian tissues,1547 genes
same,MDA activity compared with the normal saline group,"POI mice [1]; FIG. 10, no significant difference",reduced to some extent
same,MDA,POI mice [1]; [11],1.83 ± 3.06 nmol/mL
same,ROS levels compared with the normal saline group,POI mice [2]; FIG. 11,significantly reduced
same,ROS,"POI mice [2]; relative ROS level in serum, POI mice after treatment",4.610 ± 0.476
same,Activity of SOD compared with the normal saline group,"POI mice [3]; FIG. 9, difference not significant",increased
same,SOD,POI mice [3]; [11],14.42 ± 9.05 U/mL
same,Serum FSH level compared with the normal saline group,POI mice [4]; [12],certain decreasing trend
same,FSH,POI mice [4]; Example 2 POI mice,2.39 ± 1.07 mIU/mL
same,Effect on mice with premature ovarian failure (conclusion from estrous cycle),POI model mice [5]; Example 2,preventive and therapeutic effects
same,Average rate of diestrum (D) in estrous cycle,POI model mice [5]; [13],55.00%
same,Average rate of estrous (E) stage in estrous cycle,POI model mice [5]; [13],15.00%
same,Average rate of metestrum (M) in estrous cycle,POI model mice [5]; [13],2.50%
same,Average rate of proestrous (P) in estrous cycle,POI model mice [5]; [13],27.50%
same,Number of mice with estrous cycle recovered,"POI model mice [5]; Example 2, 12 days observation, DMF n=5, HDCA n=6, DMF and HDCA n=7",4 mice
same,Body weight before modeling,[6]; Example 2 POI mice,19.22 ± 1.39 g
same,Body weight after modeling,[6]; Example 2 POI mice,16.54 ± 1.44 g
same,Body weight after treatment,[6]; Example 2 POI mice,16.98 ± 1.99 g
same,Serum E2 level compared with the normal saline group,POI mice [7]; [12],certain tendency to decrease
same,E2,POI mice [7]; Example 2 POI mice,48.86 ± 11.41 pg/mL
"O=C([O-])/C=C/C(=O)[O-].[Na+].[Na+] [SF, sodium fumarate]",Restoration of ovulation in aged mice,[8],can restore ovulation
same,Number of mice that ovulated,"[8]; SF n=4, SF+HDCA n=3, FIG. 13",4 mice
same,Effect on mice with premature ovarian failure (conclusion from estrous cycle),POI model mice [9]; Example 1,preventive and therapeutic effects
same,Average rate of diestrum (D) in estrous cycle,POI model mice [9]; [14],20.83%
same,Average rate of estrous stage (E) in estrous cycle,POI model mice [9]; [14],20.83%
same,Average rate of metestrum (M) in estrous cycle,POI model mice [9]; [14],18.10%
same,Average rate of proestrous (P) in estrous cycle,POI model mice [9]; [14],40.28%
same,Number of mice with estrous cycle recovered,"POI model mice [9]; Example 1, 12 days observation, 6 SF, 7 HDCA, 7 SF and HDCA mice left",4 mice
same,Serum FSH level compared with the normal saline group,"POI mice [4]; Example 1, FIG. 6",certain increasing trend
same,FSH,POI mice [4]; Example 1 POI mice,8.56 ± 2.59 mIU/mL
same,Activity of LDH compared with the normal saline group,POI mice [10]; FIG. 12,reduced to some extent
same,LDH,POI mice [10]; [11],3136.09 ± 294.67 U/mL
same,Body weight before modeling,[6]; Example 1 POI mice,18.77 ± 0.63 g
same,Body weight after modeling,[6]; Example 1 POI mice,18.15 ± 0.92 g
same,Body weight after treatment,[6]; Example 1 POI mice,18.07 ± 1.03 g
same,Weight recovery after chemotherapy,"[6]; Example 1 POI mice, FIG. 2A",significantly beneficial
same,Weight recovery after chemotherapy,"[6]; Example 2 POI mice, FIG. 2B",significantly beneficial
same,Serum E2 level compared with the normal saline group,"POI mice [7]; Example 1, FIG. 7",tendency to increase
same,E2,POI mice [7]; Example 1 POI mice,57.24 ± 4.56 pg/mL
